Structures are written as SMILES.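 Interpolation was linear, between the two tested concentrations surrounding the appropriate level; five concentrations were tested over 48 hours in 96-well plates. The concentration for full growth arrest is given as TGI.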

Some test systems named below: SF-295 CNS; COLO 205 colon; NCI-H23 lung; A498 renal; 786-0 renal; SK-OV-3 ovarian; MDA-MB-435; LOX IMVI melanoma; MALME-3M melanoma; SK-MEL-5 melanoma; MDA-N; EKVX NSCLC; NCI-H460 lung; MCF7 breast; HS 578T breast; NCI/ADR-RES ovarian; CAKI-1 renal; RXF 393 renal.
Test in all cases: DTP human tumour cell line panel, 48 h

Broadly, the TGI is the concentration giving total growth inhibition. On to `CC1=C(C)C1[N+](=O)[O-]`, for which the TGI in the experiment with SF-295 CNS, in the experiment on COLO 205 colon, in the experiment on NCI-H23 lung, with A498 renal, in the experiment with 786-0 renal and in the experiment with SK-OV-3 ovarian was more than 100 µM throughout. Also, the concentration for total growth inhibition (TGI) in the experiment with MDA-MB-435, in the experiment on LOX IMVI melanoma, in the experiment on MALME-3M melanoma, with SK-MEL-5 melanoma, with MDA-N and in the experiment on EKVX NSCLC was more than 100 µM in each case. Moreover, the TGI in the experiment on NCI-H460 lung, with MCF7 breast, with HS 578T breast, in the experiment on NCI/ADR-RES ovarian, in the experiment with CAKI-1 renal and in the experiment on RXF 393 renal was more than 100 µM each time.

`CC(C)=c1sc(=C(C)C)c2c1=NC(C)(C)N=2`: the concentration for total growth inhibition (TGI) in the experiment on SF-295 CNS, with COLO 205 colon, with NCI-H23 lung, in the experiment on A498 renal, with 786-0 renal and in the experiment with SK-OV-3 ovarian was more than 100 µM each time. In addition, the TGI with MDA-MB-435, in the experiment on LOX IMVI melanoma, in the experiment with MALME-3M melanoma, in the experiment with SK-MEL-5 melanoma, with MDA-N and in the experiment with EKVX NSCLC was more than 100 µM in each case. The total growth inhibition concentration (TGI) in the experiment on NCI-H460 lung, with MCF7 breast, in the experiment with HS 578T breast, with NCI/ADR-RES ovarian, with CAKI-1 renal and with RXF 393 renal was more than 100 µM each time.

For `COC(=O)c1c2c(cc3c1CC1(Cc4ccc(C(C)=O)cc4C1)C3)CCC2` (centres undefined), the TGI with SF-295 CNS, in the experiment with COLO 205 colon, in the experiment with NCI-H23 lung, in the experiment on A498 renal, in the experiment with 786-0 renal and in the experiment on SK-OV-3 ovarian was more than 100 µM throughout. Besides, the TGI was 50.8 µM in the experiment on MDA-MB-435; 60.2 µM in the experiment on LOX IMVI melanoma; 61.9 µM in the experiment with MALME-3M melanoma; 45.4 µM in the experiment on SK-MEL-5 melanoma; 28.5 µM with MDA-N; more than 100 µM with EKVX NSCLC. Also, the concentration for total growth inhibition (TGI) is more than 100 µM in the experiment with NCI-H460 lung; more than 100 µM with MCF7 breast; 80.7 µM with HS 578T breast; more than 100 µM with NCI/ADR-RES ovarian; more than 100 µM in the experiment with CAKI-1 renal; 80 µM with RXF 393 renal.

Consider `COc1cc(/C=C2\C(=O)N(c3ccccc3Cl)C(c3ccccc3)S2(=O)=O)cc(OC)c1OC` (centres undefined), for which the concentration for total growth inhibition (TGI) in the experiment with SF-295 CNS, with COLO 205 colon, in the experiment with NCI-H23 lung, in the experiment with A498 renal, in the experiment on 786-0 renal and in the experiment on SK-OV-3 ovarian was more than 100 µM throughout. In addition, the total growth inhibition concentration (TGI) with MDA-MB-435 was more than 100 µM; with LOX IMVI melanoma, 50.5 µM; in the experiment on MALME-3M melanoma it was 89.3 µM; in the experiment on SK-MEL-5 melanoma it was 45.5 µM; in the experiment on MDA-N it was 42.5 µM; in the experiment with EKVX NSCLC, more than 100 µM. The TGI with NCI-H460 lung is more than 100 µM; in the experiment on MCF7 breast, more than 100 µM; in the experiment with HS 578T breast it was more than 100 µM; in the experiment with NCI/ADR-RES ovarian, more than 100 µM; in the experiment with CAKI-1 renal, more than 100 µM; with RXF 393 renal, 76.7 µM.

In the case of `Cc1ccc(/C=C2\CN(C)CC3C2=NN(c2ccccc2)C3c2ccc(C)cc2)cc1` (centres undefined), the TGI in the experiment with SF-295 CNS, in the experiment with COLO 205 colon, in the experiment with NCI-H23 lung, with A498 renal, in the experiment with 786-0 renal and in the experiment with SK-OV-3 ovarian was more than 100 µM throughout. In addition, the total growth inhibition concentration (TGI) in the experiment with MDA-MB-435, with LOX IMVI melanoma, in the experiment on MALME-3M melanoma, in the experiment on SK-MEL-5 melanoma, with MDA-N and with EKVX NSCLC was more than 100 µM throughout. Besides, the TGI in the experiment on NCI-H460 lung, in the experiment on MCF7 breast, in the experiment on HS 578T breast, with NCI/ADR-RES ovarian, in the experiment with CAKI-1 renal and in the experiment with RXF 393 renal was more than 100 µM throughout.

Consider `COc1ccc(N2C(=O)C(C)SC2c2cc3cc(Br)ccc3nc2Cl)cc1` (centres undefined), for which the TGI in the experiment on SF-295 CNS, in the experiment on COLO 205 colon, with NCI-H23 lung, in the experiment on A498 renal, in the experiment with 786-0 renal and in the experiment on SK-OV-3 ovarian was more than 100 µM in each case. Moreover, the concentration for total growth inhibition (TGI) in the experiment with MDA-MB-435 was 50.5 µM; with LOX IMVI melanoma it was more than 100 µM; in the experiment on MALME-3M melanoma, more than 100 µM; in the experiment on SK-MEL-5 melanoma it was more than 100 µM; in the experiment on MDA-N, more than 100 µM; in the experiment with EKVX NSCLC, 98.5 µM. Moreover, the TGI is more than 100 µM in the experiment on NCI-H460 lung; more than 100 µM in the experiment on MCF7 breast; more than 100 µM in the experiment on HS 578T breast; 85.8 µM in the experiment on NCI/ADR-RES ovarian; more than 100 µM with CAKI-1 renal; 93.6 µM in the experiment with RXF 393 renal.

On to `C=CC[C@@]1([C@H](C=C)COCc2ccc(OC)cc2)CC[C@]2(C)OC(C)(C)[C@@H](c3ccccc3)N2C1=S`, for which the concentration for total growth inhibition (TGI) in the experiment with SF-295 CNS was more than 100 µM; with COLO 205 colon, 41.6 µM; with NCI-H23 lung, more than 100 µM; in the experiment with A498 renal it was more than 100 µM; with 786-0 renal it was more than 100 µM; in the experiment on SK-OV-3 ovarian, more than 100 µM. Moreover, the concentration for total growth inhibition (TGI) with MDA-MB-435 was more than 100 µM; with LOX IMVI melanoma, more than 100 µM; with MALME-3M melanoma, more than 100 µM; with SK-MEL-5 melanoma, 61.8 µM; in the experiment on MDA-N, more than 100 µM; with EKVX NSCLC it was more than 100 µM. For the same molecule, the TGI in the experiment on NCI-H460 lung, with MCF7 breast, with HS 578T breast, in the experiment on NCI/ADR-RES ovarian, in the experiment with CAKI-1 renal and in the experiment on RXF 393 renal was more than 100 µM each time.

In the case of `O=P1(c2ccccc2)C(c2ccccc2)=CC=C1c1ccccc1`, the total growth inhibition concentration (TGI) with SF-295 CNS was more than 100 µM; in the experiment on COLO 205 colon, 46.1 µM; with NCI-H23 lung, more than 100 µM; in the experiment on A498 renal it was more than 100 µM; in the experiment on 786-0 renal it was more than 100 µM; with SK-OV-3 ovarian, more than 100 µM. Also, the TGI in the experiment with MDA-MB-435 was 36.4 µM; in the experiment on LOX IMVI melanoma, 37.8 µM; in the experiment with MALME-3M melanoma it was more than 100 µM; in the experiment on SK-MEL-5 melanoma, 28.4 µM; in the experiment on MDA-N it was 62.1 µM; in the experiment with EKVX NSCLC it was more than 100 µM. Also, the TGI is more than 100 µM in the experiment on NCI-H460 lung; 66.6 µM with MCF7 breast; more than 100 µM in the experiment with HS 578T breast; more than 100 µM in the experiment with NCI/ADR-RES ovarian; more than 100 µM in the experiment on CAKI-1 renal; more than 100 µM in the experiment on RXF 393 renal.
